# Source: patent publication US20230000813A1, “COMPOUND FOR THE TREATMENT OF BOVINE OR SWINE RESPIRATORY DISEASE” (Intervet Inc., priority 2016, published 2023)
# Where two headings read alike, the source gives them in different places.
# Legend:
# Format in all cases: cell-based
# [1] = test system: 40 isolates of Mannheimia (M.) haemolytica; test: MIC50/MIC90, broth-microdilution, European respiratory tract isolates
# Method: (§1) The in vitro activity of compounds against 20 isolates of Actinobacillus (A.) pleuropneumoniae, 20 of Bordetella (B.) bronchiseptica, 20 of Histophilus (H.) somni, 40 of Mannheimia (M.) haemolytica and 40 of Pasteurella (P.) multocida collected in different European countries were determined. All bacteria were isolated from the respiratory tract of swine and cattle suffering from respiratory disease. All isolates were epidemiologically unrelated as specified by the different suppliers.
# (§2) The minimum inhibitory concentrations (MIC) of compounds according to the invention were determined by the broth-microdilution method according to CLSI document VET01-A4.
# (§3) Microdilution trays containing a doubling dilution series of the test compounds were used for the tests.
# (§4) The MIC results were interpreted according to the CLSI documents VET01-S3. The lowest concentration of compound at which no visible growth (i.e. no turbidity) detected by the unaided eye was recorded as the MIC.
# [2] = test system: 20 isolates of Histophilus (H.) somni; test: as above
# Method: as §1, §2, §3, §4
# [3] = test system: 40 isolates of Pasteurella (P.) multocida; test: as above
# Method: as §1, §2, §3, §4
# [4] = test system: 20 isolates of Actinobacillus (A.) pleuropneumoniae; test: as above
# Method: as §1, §2, §3, §4
# [5] = test system: 20 isolates of Bordetella (B.) bronchiseptica; test: as above
# Method: as §1, §2, §3, §4
# [6] = test system: Mannheimia haemolytica MH 6374 (ATCC 33396, reference strain); test: MIC, broth-microdilution (CLSI VET01-A4)
# Outline: (§5)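 MIC values follow CLSI VET01-S3 interpretation, scored as the lowest concentration free of visible turbidity within a doubling dilution series in microdilution trays.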
# [7] = test system: Pasteurella multocida PM 6267 (P 2225 (L386), reference strain, mouse infection strain); test: MIC, broth-microdilution (CLSI VET01-A4)
# Outline: as §5
# [8] = test system: Mannheimia haemolytica MH 12587 (1071, BRD field isolate, macrolide-resistance: erm+, E+); test: MIC, broth-microdilution (CLSI VET01-A4)
# Outline: as §5
# [9] = test system: Mannheimia haemolytica MH 6357 (M7/2, reference strain, cattle infection strain); test: MIC, broth-microdilution (CLSI VET01-A4)
# Outline: as §5
# [10] = test system: Pasteurella multocida PM 6391 (ATCC 43137, reference strain); test: MIC, broth-microdilution (CLSI VET01-A4); settings: strain PM 6391
# Outline: as §5
# [11] = test system: Pasteurella multocida PM 12080 (IV102277-0093, BRD field isolate); test: MIC, broth-microdilution (CLSI VET01-A4)
# Outline: as §5
# [12] = test system: Mannheimia haemolytica MH 10720 (154, BRD field isolate); test: MIC, broth-microdilution (CLSI VET01-A4)
# Outline: as §5
# [13] = test system: Pasteurella multocida PM 10775 (080130003051, BRD field isolate); test: MIC, broth-microdilution (CLSI VET01-A4)
# Outline: as §5
# [14] = test system: Mannheimia haemolytica MH 13065 (XB0446-6003.9, BRD field isolate); test: MIC, broth-microdilution (CLSI VET01-A4)
# Outline: (§6)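 MIC read by eye as lowest compound concentration without visible growth (no turbidity), interpreted per CLSI VET01-S3. Doubling-dilution broth-microdilution trays, run according to CLSI VET01-A4.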
# [15] = test system: Mannheimia haemolytica MH 13093 (XB0472-6014.1, BRD field isolate); test: MIC, broth-microdilution (CLSI VET01-A4)
# Outline: as §6
# [16] = test system: 15 isolates of H. parasuis; test: MIC50/MIC90, agar-dilution method (GC agar base); settings: Haemophilus parasuis
# Method: The in vitro activity of 3 representative compounds of this invention against 15 isolates of H. parasuis was determined. All strains were isolated from the respiratory tract of swine in different European countries The MICs for all isolates were determined by using the agar-dilution method according to CLSI document VET01-A4 [1]with the following modification: GC agar base was used instead of Mueller-Hinton agar base for the preparation of the agar-dilution plates. Results were interpreted according to the CLSI document VET01-S3.
# [17] = test system: Acinetobacter baumanii AB 15919 (IV369-2012, dermatitis field isolate); test: MIC, broth-microdilution (CLSI VET01-A4); settings: strain AB 15919
# Method: (§7) The Minimum inhibitory concentrations (MIC) of compounds according to the invention were determined by the broth-microdilution method according to CLSI document VET01-A4.
# (§8) Microdilution trays containing a doubling dilution series of the test compound were used for the tests.
# as §4
# [18] = test system: Mannheimia haemolytica MH 12180 (KLI-02944, BRD field isolate); test: MIC, broth-microdilution (CLSI VET01-A4); settings: strain MH 12180
# Method: as §7, §8, §4
# [19] = test system: Acinetobacter baumanii AB 16496 (ATCC 19606, reference strain); test: MIC, broth-microdilution (CLSI VET01-A4); settings: strain AB 16496
# Method: as §7, §8, §4
# [20] = test system: Staphylococcus aureus SA 5816 (2139, mastitis field isolate); test: MIC, broth-microdilution (CLSI VET01-A4); settings: strain SA 5816
# Method: as §7, §8, §4
# [21] = test system: Staphylococcus aureus SA 6114 (ATCC 29213, reference strain); test: MIC, broth-microdilution (CLSI VET01-A4); settings: strain SA 6114
# Method: as §7, §8, §4
# [22] = test system: Pasteurella multocida PM 14426 (0006-439, BRD field isolate, macrolide-resistant); test: MIC, broth-microdilution (CLSI VET01-A4); settings: strain PM 14426, macrolide-resistant
# Method: as §7, §8, §4
smiles,measurement,setting,value
CC(C)(N)C(NC(=O)c1ccc(C#Cc2ccc(CNCc3ccncc3)cc2)cc1)C(=O)NO (centres unmarked) [C. 320],MIC50,[1],0.5 µg/mL
same,MIC90,[1],0.5 µg/mL
same,MIC50,[2],0.063 µg/mL
same,MIC90,[2],0.125 µg/mL
same,MIC50,[3],≤0.016 µg/mL
same,MIC90,[3],0.032 µg/mL
same,MIC50,[4],0.5 µg/mL
same,MIC90,[4],0.5 µg/mL
same,MIC50,[5],2 µg/mL
same,MIC90,[5],2 µg/mL
same,MIC,"[6]; Mannheimia haemolytica MH 6374, read-out: MIC MH 6374",0.8 µM
same,MIC,[6]; strain MH 6374,0.25 µg/mL
same,MIC PM 6267,[7]; Pasteurella multocida PM 6267,<=0.1 μM
same,MIC,[7]; strain PM 6267,≤0.016 µg/mL
same,MIC MH 12587,"[8]; Mannheimia haemolytica MH 12587, macrolide-resistant",1.6 µM
same,MIC,"[8]; strain MH 12587, macrolide-resistant",0.5 µg/mL
same,MIC,"[9]; Mannheimia haemolytica MH 6357, read-out: MIC MH 6357",0.8 µM
same,MIC,[9]; strain MH 6357,0.5 µg/mL
same,MIC,[10],0.032 µg/mL
same,MIC PM 12080,[11]; Pasteurella multocida PM 12080,<=0.1 μM
same,MIC,[11]; strain PM 12080,≤0.016 µg/mL
same,MIC,"[12]; Mannheimia haemolytica MH 10720, read-out: MIC MH 10720",0.4 µM
same,MIC,[12]; strain MH 10720,0.25 µg/mL
same,MIC PM 10775,[13]; Pasteurella multocida PM 10775,<=0.1 μM
same,MIC,[13]; strain PM 10775,≤0.016 µg/mL
same,MIC,[14],0.8 µM
same,MIC,[15],1.6 µM
same,MIC50,[16],2 µg/mL
same,MIC90,[16],4 µg/mL
same,MIC,[17],16 µg/mL
same,MIC,[18],0.5 µg/mL
same,MIC,[19],>16 µg/mL
same,MIC,[20],>16 µg/mL
same,MIC,[21],>16 µg/mL
same,MIC,[22],≤0.016 µg/mL
